In ChEMBL document CHEMBL1201862, “PubChem BioAssay data set” (2004) one finds EC50, AC50 and IC50 data, which are given here for 14 compounds.

Test [1] concerns BJ. Description: cells. The test is classed as functional, cell-based. To be noted: Homo sapiens.
Test [2] deals with BJ. The experiment in a line: cytotoxicity toward BJ-TERT-LT-ST fibroblasts, dose response, cell-based, RAS-independent, luminescence (AID 1935).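 Further: BJ fibroblasts immortalized with TERT plus LT and ST oncogenes.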 The test is classed as functional. To be noted: Homo sapiens.
Test [3] can be described thus: cytotoxicity toward DRD oncogenic fibroblasts, dose response, cell-based, non-viral oncogenic, luminescence (AID 1934). The class given is functional. To be noted: Homo sapiens.
The subject of test [4] is BJ. Description: cytotoxicity toward BJ-TERT fibroblasts, dose response, cell-based, RAS-independent, luminescence (AID 1933). The test is classed as functional. To be noted: Homo sapiens.
In test [5] the target is T1, Short transient receptor potential channel 4 (Mus musculus, UniProt Q9QUQ5).
T1 sequence (Q9QUQ5 whole entry): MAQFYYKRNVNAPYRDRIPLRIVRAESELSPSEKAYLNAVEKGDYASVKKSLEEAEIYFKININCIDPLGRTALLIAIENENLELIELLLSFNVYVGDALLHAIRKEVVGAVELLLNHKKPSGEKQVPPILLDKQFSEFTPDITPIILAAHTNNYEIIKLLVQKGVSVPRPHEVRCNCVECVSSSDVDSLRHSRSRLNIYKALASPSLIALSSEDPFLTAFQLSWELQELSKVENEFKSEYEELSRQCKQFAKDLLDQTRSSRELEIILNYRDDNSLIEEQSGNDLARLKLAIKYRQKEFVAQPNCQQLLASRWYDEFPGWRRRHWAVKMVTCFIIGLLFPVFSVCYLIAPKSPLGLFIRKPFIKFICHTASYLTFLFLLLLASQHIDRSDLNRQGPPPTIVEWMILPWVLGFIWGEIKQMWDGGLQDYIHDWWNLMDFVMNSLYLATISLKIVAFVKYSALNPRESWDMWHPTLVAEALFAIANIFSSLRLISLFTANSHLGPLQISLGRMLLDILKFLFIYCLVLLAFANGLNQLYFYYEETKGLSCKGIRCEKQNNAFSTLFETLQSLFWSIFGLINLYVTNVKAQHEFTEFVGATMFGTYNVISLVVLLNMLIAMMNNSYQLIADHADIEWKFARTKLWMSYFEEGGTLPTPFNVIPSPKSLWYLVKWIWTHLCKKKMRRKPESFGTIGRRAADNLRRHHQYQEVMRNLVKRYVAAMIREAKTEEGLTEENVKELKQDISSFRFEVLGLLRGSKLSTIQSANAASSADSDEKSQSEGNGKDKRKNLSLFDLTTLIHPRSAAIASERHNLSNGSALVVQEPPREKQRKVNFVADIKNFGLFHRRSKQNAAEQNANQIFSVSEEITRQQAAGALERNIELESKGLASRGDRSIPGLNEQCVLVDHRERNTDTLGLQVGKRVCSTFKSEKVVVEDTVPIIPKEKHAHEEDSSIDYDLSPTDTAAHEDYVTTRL
Description: mouse TRPC4 channel inhibitors, dose response, cell-based, HEK293 TRPC4/mu-opioid, Fluo-4 calcium (AID 434942).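 Further: potency of inhibitors blocking the TRPC4 calcium response.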 The class given is functional.

Test [6] addresses T2, Zinc finger protein mex-5 (Caenorhabditis elegans, UniProt Q9XUB2).
T2 sequence (Q9XUB2 whole entry): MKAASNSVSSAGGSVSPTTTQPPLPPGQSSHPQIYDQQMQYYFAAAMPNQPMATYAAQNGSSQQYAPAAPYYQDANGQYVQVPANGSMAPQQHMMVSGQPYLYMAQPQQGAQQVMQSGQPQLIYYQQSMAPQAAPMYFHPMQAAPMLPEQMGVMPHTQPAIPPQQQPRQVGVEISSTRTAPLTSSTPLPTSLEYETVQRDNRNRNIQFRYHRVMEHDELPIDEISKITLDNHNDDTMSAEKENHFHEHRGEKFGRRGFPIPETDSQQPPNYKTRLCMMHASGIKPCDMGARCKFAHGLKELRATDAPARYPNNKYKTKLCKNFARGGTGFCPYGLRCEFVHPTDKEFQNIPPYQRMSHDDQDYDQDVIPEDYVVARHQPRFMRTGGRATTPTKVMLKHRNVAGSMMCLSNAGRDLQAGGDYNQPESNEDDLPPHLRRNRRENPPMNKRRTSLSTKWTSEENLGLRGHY
Description: MEX-5/TCR-2 RNA interaction inhibitors, dose response, biochemical, C. elegans, fluorescence polarization (AID 1960). On the technique in general: Fluorescence polarisation rises when a labelled molecule tumbles more slowly, as on binding a larger partner.

Test [7] has as its target T3, RNA-binding protein pos-1 (Caenorhabditis elegans, UniProt G5EF15).
T3 sequence (G5EF15 whole entry): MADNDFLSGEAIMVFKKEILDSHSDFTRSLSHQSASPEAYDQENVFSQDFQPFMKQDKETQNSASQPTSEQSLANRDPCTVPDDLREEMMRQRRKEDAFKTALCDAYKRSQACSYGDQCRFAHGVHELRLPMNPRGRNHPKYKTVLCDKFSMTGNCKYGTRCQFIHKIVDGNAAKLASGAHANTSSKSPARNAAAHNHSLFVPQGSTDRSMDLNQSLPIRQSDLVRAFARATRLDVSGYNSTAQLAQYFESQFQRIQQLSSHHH
The experiment in a line: inhibitors of POS-1/mex-3 RNA binding, dose response, biochemical, fluorescence polarization (AID 1964).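 Further: purified POS-1 fused to maltose binding protein made in E. coli; potency of compounds blocking POS-1 binding to fluorescent RNA.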

Test [8] deals with Cytochrome P450 3A4 (Homo sapiens, UniProt P08684). To be noted: Potency.
The target of test [9] is Glyceraldehyde-3-phosphate dehydrogenase (Homo sapiens, UniProt P04406).
In test [10] the target is T4, Polyadenylate-binding protein 1 (Homo sapiens, UniProt P11940). Description: PABP1 MLLE–PAM2 binding inhibitor potency, dose response, biochemical, fluorescence polarization, FITC-PAM2 peptide (AID 602259). The class given is functional. To be noted: read-out: IC50_Mean.
Test [11] deals with T4, Polyadenylate-binding protein 1. Description: PABP1 MLLE–PAM2 interaction inhibitors, dose response, miRNA deadenylation inhibitor project, biochemical, fluorescence polarization, Cy5-PAM2 peptide, secondary (AID 602260). The class given is functional. To be noted: read-out: IC50_Mean.
The target of test [12] is Genome polyprotein (dengue virus type 2, UniProt P29990). The experiment in a line: Dengue-2 NS5 methyltransferase inhibitors, primary screen, biochemical, confirmation dose response (AID 588689). The test is classed as functional.
The target of test [13] is Paired box protein Pax-8 (Homo sapiens, UniProt Q06710). The experiment in a line: inhibitors of PAX8-driven TPO luciferase reporter, dose response, RMG-I cells, cherry-pick (AID 687027).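 Further: luciferase reporter driven by Pax8 target thyroperoxidase promoter measured by SteadyGlo luminescence.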 The test is classed as functional, cell-based.
Test [14] can be described thus: cytotoxicity toward NIH3T3 fibroblasts, dose response, counter-screen, cell-based, ATP luminescence, mouse fibroblasts (AID 2010).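 Further: cells exposed to compound for about 90 hours before reading.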 The test is classed as functional. In general terms: The purpose of a counterscreen is to sort out artefacts and off-target activity.
A short description of test [15]: inhibitors of intracellular T. cruzi replication, confirmation, NIH3T3 host cells, beta-gal luminescence (AID 2044).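 Further: intracellular parasites grown in NIH/3T3 mouse fibroblasts as host cells; luminescent beta-galactosidase reporter signal from transgenic T. cruzi replicating inside host cells; inhibitors lower the luminescence signal.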 The test is classed as functional, cell-based.
In test [16] the test system is HEK293. The experiment in a line: inhibitors of LMP1-driven NF-kB reporter, dose response, cell-based, HEK293, luciferase, cherry-pick (AID 588343). The test is classed as functional. To be noted: Homo sapiens.

Calls of active or inactive are those of the source. Bounds are passed on as bounds.

Chain of Cytochrome P450 3A4 (P08684 whole entry): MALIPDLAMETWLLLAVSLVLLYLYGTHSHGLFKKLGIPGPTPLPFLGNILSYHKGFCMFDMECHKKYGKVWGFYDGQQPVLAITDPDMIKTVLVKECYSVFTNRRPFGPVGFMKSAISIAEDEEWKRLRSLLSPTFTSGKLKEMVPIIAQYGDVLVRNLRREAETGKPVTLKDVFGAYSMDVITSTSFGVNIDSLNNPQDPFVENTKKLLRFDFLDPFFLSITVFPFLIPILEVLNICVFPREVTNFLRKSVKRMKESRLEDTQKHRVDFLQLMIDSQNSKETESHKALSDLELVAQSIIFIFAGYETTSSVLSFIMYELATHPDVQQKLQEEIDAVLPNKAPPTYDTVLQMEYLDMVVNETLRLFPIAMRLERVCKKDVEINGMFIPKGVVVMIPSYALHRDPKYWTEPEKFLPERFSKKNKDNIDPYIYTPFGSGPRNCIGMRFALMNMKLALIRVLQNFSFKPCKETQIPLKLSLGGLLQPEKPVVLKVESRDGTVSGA
T4 sequence (P11940 whole entry): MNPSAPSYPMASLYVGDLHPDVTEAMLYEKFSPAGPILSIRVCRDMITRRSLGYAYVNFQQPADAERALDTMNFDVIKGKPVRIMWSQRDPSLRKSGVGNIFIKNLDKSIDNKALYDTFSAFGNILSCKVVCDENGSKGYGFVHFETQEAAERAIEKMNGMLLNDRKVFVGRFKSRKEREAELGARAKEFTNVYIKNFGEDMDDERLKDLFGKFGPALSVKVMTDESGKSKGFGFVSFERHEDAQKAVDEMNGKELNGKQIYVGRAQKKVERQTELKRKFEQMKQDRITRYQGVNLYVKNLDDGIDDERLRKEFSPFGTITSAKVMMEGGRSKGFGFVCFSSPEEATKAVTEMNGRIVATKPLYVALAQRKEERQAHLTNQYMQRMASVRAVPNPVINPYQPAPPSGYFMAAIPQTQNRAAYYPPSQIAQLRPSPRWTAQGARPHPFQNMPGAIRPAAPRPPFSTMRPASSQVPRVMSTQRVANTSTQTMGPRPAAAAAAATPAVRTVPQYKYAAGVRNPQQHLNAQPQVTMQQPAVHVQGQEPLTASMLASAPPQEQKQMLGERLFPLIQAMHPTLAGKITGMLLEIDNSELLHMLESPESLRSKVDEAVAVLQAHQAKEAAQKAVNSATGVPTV
Chain of Genome polyprotein (P29990 2492-3391 limits assumed): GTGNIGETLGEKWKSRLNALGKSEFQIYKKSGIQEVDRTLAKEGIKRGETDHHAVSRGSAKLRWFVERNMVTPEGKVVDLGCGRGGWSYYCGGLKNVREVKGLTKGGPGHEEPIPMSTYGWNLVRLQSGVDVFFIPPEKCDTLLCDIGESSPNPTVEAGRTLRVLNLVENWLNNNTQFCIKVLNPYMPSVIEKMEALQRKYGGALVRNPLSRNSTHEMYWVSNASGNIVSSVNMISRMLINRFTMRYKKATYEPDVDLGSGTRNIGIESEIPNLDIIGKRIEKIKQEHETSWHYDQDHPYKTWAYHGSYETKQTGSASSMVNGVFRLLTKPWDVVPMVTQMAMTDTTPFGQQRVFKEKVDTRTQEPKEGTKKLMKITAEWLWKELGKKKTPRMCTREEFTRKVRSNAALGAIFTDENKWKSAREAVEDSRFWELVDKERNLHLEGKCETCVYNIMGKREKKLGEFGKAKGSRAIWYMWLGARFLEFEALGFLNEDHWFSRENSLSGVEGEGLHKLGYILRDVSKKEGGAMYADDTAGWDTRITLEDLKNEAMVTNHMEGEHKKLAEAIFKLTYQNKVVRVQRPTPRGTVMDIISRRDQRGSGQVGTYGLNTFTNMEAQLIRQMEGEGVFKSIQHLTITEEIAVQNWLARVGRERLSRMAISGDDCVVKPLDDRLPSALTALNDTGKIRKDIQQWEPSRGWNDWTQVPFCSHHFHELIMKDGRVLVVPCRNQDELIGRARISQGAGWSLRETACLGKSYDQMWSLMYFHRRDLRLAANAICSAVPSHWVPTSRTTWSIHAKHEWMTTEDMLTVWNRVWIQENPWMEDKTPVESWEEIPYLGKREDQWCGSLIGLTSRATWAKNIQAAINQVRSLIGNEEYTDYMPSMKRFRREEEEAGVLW
Chain of Paired box protein Pax-8 (Q06710 whole entry): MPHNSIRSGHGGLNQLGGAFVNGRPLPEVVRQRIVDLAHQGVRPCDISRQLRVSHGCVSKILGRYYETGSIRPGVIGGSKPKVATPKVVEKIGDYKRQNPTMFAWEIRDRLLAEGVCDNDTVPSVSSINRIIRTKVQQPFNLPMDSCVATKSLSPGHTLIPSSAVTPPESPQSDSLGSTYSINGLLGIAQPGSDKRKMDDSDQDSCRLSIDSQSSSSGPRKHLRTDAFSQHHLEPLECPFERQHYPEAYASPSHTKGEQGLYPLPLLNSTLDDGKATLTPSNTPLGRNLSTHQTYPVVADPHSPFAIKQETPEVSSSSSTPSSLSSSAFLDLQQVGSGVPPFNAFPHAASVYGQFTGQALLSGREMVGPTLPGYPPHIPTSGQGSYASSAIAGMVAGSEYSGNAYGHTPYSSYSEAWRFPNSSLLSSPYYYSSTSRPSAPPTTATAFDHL
Chain of Glyceraldehyde-3-phosphate dehydrogenase (P04406 whole entry): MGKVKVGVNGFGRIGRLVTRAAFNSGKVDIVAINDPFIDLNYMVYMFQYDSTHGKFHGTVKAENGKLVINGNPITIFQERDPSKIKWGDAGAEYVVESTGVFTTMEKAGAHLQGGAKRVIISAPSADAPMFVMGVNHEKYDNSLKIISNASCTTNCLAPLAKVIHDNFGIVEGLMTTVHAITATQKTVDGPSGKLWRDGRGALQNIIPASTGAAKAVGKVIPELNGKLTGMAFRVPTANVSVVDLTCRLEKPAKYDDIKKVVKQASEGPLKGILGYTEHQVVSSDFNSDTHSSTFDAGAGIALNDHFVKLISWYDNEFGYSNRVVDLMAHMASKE

Broadly, the EC50 is the concentration that produces a half-maximal response. Take `O=C(Cc1ccc(Br)cc1)NCc1ccccc1`: the EC50 was 56.3 µM (inconclusive) in test [1], 45.4 µM (inconclusive) in test [2], 4.57 µM (active) in [3] and 11.9 µM (active) in test [4]. Take `CCCSc1nc(N)nc(-c2cccs2)c1C#N`: the 50% effective concentration (EC50) in test [5] was 2.66 µM (active). For the compound `Cc1cc(C)c(N2C(=O)NC(=O)/C(=C\NNC(=O)c3ccncc3)C2=O)c(C)c1`, the values for the EC50 in test [6] and in test [7] were 36.6 µM (active) and 64.7 µM (active), respectively. Regarding `COc1ccc(CN2CCCC(C(=O)c3sccc3C)C2)cc1O` (centres undefined), the EC50 in test [5] was 11.9 µM (active). In general, AC50 refers to the concentration giving half of the maximal activity seen. As to `CC1(C)C[C@@H]2C(=O)CCC3O[C@@]3(C)CCC21` (some centres undefined), the AC50 in test [8] is 12.6 µM (inconclusive).

Turning to `O=C(NNS(=O)(=O)c1ccc([N+](=O)[O-])cc1)C(=O)Nc1cccc(C(=O)O)c1`, the EC50 was 12.3 µM (inconclusive) in test [6] and 9.52 µM (inconclusive) in test [7]. For the compound `NC1=NC(=O)/C(=C/c2ccc(-c3cc([N+](=O)[O-])ccc3Cl)o2)S1`, in test [9], the IC50 is given as > 100 µM (not active). With `Nc1c2c(nc3ccccc13)CCC2`, the EC50 in [5] was 4.22 µM (active). As for `CCCn1c(-c2ccc(F)cc2)nc2c(NCCN(CC)CC)nc(C)nc21`, in test [8], the concentration at half-maximal activity (AC50) was 15.8 µM (inconclusive). `CC1=CC(=O)C(Sc2ccc(C)cc2)=CC1=O`: the IC50 is > 66 µM (inactive) in test [10], > 66 µM (inactive) in [11] and 14.5 µM (active) in test [12]. As for `COc1ccc(S(=O)(=O)Nc2ccc3c(c2)C(=O)N([C@H](C)CO)C[C@H](C)[C@H](CN(C)S(=O)(=O)c2ccc(F)cc2)OCCCC[C@H](C)O3)cc1`, the AC50 in test [13] is 4.78 µM (active). Consider `C/C(=N\c1ccc(Br)cc1)c1sc2ccccc2c1O`, for which the half-maximal effective concentration (EC50) was > 60 µM (not active) in test [14], > 300 µM (inconclusive) in [6], 4.08 µM (active) in test [15] and > 300 µM (not active) in test [7]. For `Cc1cccc(/C=N/NC(=O)CNc2cccc3ccccc23)n1`, in test [16], the AC50 is 107 µM (active). For the compound `COC1=CC(=O)C(C(=O)c2ccccc2)=CC1=O` [2-BENZOYL-5-METHOXYBENZOQUINONE], in [8], the AC50 is 10 µM (inconclusive).
